Experimental data published in US20090131527A1, “NOVEL ANTHRANILIC ACID DERIVATIVES AND CHLORIDE CHANNEL BLOCKING AGENT CONTAINING THE SAME” (Korea Institute of Science and Technology, priority 2007, published 2009).

Target: Cl− channel activated by Ca2+ (calcium ion-activated chloride channels) (Xenopus laevis, UniProt B5SVV6)
Experiment: Two-electrode voltage clamp recording of Ca2+-activated chloride current in Xenopus Laevis eggs (ionomycin/thapsigargin treated)
Format: cell-based
Conditions: for IC50: calcium ion-activated chloride channel current in Xenopus Laevis eggs, activated with 5 mM Ca2+, 15 s pretreatment with chemical; for inhibitory activity of calcium activated chloride channel current (in words): compared to the conventional anthranilic acid derivatives flufenamic acid and mefenamic acid / known inhibitors
Method: The prepared eggs were treated with 10 μM ionomycin (Sigma) for 30 min.
An intracellular solution was prepared by adding 0.5 mM EGTA and 1 μM Chelerythrine (Sigma) into a 1 M KCl solution, which was filled in glass microelectrodes. One of the above prepared eggs was placed on the chamber and two electrodes were inserted into opposite sides of the egg while the recording solution was poured. Current was measured by performing two-electrode voltage clamp recording according to a protocol suitable for the purpose of the experiment.
In order to activate a Ca^2+-dependent chloride channel, 5 mM Ca^2+ was treated first to the above eggs for 5 seconds. After being washed with the above recording solution for 50 seconds, and pretreated with the chemicals in the below Table 1 (treated in the order of […]) for 15 seconds, the eggs were treated with 5 mM Ca^2+ and the above chemicals (same amount as above) to measure the inhibitory concentrations of each chemical by comparing the current measured with 5 mM Ca^2+.

Sequence of Cl− channel activated by Ca2+ (calcium ion-activated chloride channels) (B5SVV6 entry or part of it): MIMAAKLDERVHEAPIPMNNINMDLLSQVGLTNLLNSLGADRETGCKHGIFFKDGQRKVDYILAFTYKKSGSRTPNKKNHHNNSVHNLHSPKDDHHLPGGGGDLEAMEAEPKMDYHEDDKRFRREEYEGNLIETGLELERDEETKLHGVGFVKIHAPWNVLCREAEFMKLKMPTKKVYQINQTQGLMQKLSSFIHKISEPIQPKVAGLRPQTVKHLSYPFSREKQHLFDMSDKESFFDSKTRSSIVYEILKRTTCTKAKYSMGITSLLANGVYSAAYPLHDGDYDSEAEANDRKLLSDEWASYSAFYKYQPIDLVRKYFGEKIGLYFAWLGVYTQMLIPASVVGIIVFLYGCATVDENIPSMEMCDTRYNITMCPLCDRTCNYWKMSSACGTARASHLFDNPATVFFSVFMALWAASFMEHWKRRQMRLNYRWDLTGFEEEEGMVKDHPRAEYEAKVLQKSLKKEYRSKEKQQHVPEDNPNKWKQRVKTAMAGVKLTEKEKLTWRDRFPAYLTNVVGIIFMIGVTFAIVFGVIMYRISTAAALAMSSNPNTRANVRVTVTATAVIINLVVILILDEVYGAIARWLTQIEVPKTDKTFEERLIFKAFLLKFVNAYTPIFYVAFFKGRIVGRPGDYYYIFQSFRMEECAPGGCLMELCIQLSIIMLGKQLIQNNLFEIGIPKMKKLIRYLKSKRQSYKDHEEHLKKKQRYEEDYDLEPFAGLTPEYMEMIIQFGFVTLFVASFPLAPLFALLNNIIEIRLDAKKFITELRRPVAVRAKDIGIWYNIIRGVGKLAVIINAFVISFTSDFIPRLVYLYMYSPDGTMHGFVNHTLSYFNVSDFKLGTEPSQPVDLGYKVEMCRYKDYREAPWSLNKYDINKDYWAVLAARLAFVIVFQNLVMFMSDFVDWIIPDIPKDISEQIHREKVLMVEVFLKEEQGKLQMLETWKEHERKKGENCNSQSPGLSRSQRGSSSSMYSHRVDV

Compound	IC50	inhibitory activity of calcium activated chloride channel current (in words)
O=C(O)c1cc([N+](=O)[O-])ccc1Nc1ccc([N+](=O)[O-])cc1 [5-Nitro-N-(4-nitrophenyl)anthranilic acid]	15.4 µM	notably high inhibitory activity
O=C(O)c1c2ccccc2cc2ccccc12 [9-AC, 9-anthracene carboxylic acid, reference compound]	94.3 µM	
O=S(=O)(O)c1cc(N=C=S)ccc1C=Cc1ccc(N=C=S)cc1S(=O)(=O)O [DIDS, disodium 4,4′-diisothiocyano-2,2′-stilbenedisulphonic acid, reference compound]	10.7 µM	
O=C(O)c1ccccc1Nc1cccc(C(F)(F)F)c1 [Flufenamic acid, reference compound]	35.4 µM	
Cc1cccc(Nc2ccccc2C(=O)O)c1C [Mefenamic acid, reference compound]	44.5 µM	
O=C(O)c1ccccc1Nc1ccccc1C(F)(F)F [N-(2-Trifluoromethylphenyl)anthranilic acid]	29.5 µM	notably high inhibitory activity
O=C(O)c1ccccc1Nc1cccc([N+](=O)[O-])c1 [N-(3-Nitrophenyl)anthranilic acid]	32.1 µM	notably high inhibitory activity
O=C(O)c1ccccc1Nc1ccc(Cl)cc1 [N-(4-Chlorophenyl)anthranilic acid]	11.3 µM	notably high inhibitory activity
O=C(O)c1ccccc1Nc1ccc(F)c(C(F)(F)F)c1 [N-(4-Fluoro-3-trifluoromethylphenyl)anthranilic acid]	14.7 µM	notably high inhibitory activity
O=C(O)c1ccccc1Nc1ccc(F)cc1 [N-(4-Fluorophenyl)anthranilic acid]	63.1 µM	
CC(C)c1ccc(Nc2ccccc2C(=O)O)cc1 [N-(4-Isopropylphenyl)anthranilic acid]	17 µM	
COc1ccc(Nc2ccccc2C(=O)O)cc1 [N-(4-Methoxyphenyl)anthranilic acid]	102 µM	
Cc1ccc(Nc2ccccc2C(=O)O)cc1 [N-(4-Methylphenyl)anthranilic acid]	55.3 µM	
O=C(O)c1ccccc1Nc1ccc([N+](=O)[O-])cc1 [N-(4-Nitrophenyl)anthranilic acid]	17.8 µM	notably high inhibitory activity
O=C(O)c1ccccc1Nc1ccc(C(F)(F)F)cc1 [N-(4-Trifluoromethylphenyl)anthranilic acid]	6 µM	notably high inhibitory activity
CC(C)(C)c1ccc(Nc2ccccc2C(=O)O)cc1 [N-(4-tert-Butylphenyl)anthranilic acid]	22.9 µM	notably high inhibitory activity
O=C(O)c1ccccc1Nc1ccccc1 [N-Phenylanthranilic acid, reference compound]	88.1 µM	
O=C(O)c1cc([N+](=O)[O-])ccc1NCCCc1ccccc1 [NPPB, 5-nitro-2-(3-phenylpropylamino)benzoic acid, reference compound]	32.3 µM	
O=C(O)c1cccnc1Nc1cccc(C(F)(F)F)c1 [Niflumic acid, reference compound]	37.3 µM	
